Test results published in US20230248626A1, “Compositions Comprising (Bio)-Alkanediols” (Symrise AG, priority 0001, published 2023).
Converted amounts (≈) assume the structure as drawn.

Key:
Aspergillus brasiliensis = assay: MIC and Kull synergy index of 1,2-/2,3-alkanediol mixtures; assay type: cell-based; conditions: single 1,2-alkanediol, read-out: MIC Component A
[1] = Sensory evaluation on the backside of the hand (spreading, fatty/greasy skin feel, absorption), untrained panellists; conditions: for Absorption/remaining residue with alkanediol: scale 1 to 5
Method: For evaluating the sensory behaviour, liquid lipophilic components specified in the following table were blended with 1,2-heptanediol or 2,3-heptanediol or a mixture of 1,2-heptanediol and 2,3-heptanediol or 1,2-octanediol or 2,3-octanediol or a mixture of 1,2-octanediol and 2,3-octanediol (formulation) in a ratio of 85:15 and assessed by untrained panellists in comparison to the liquid lipophilic component without addition of the specified alkanediols (placebo).
The test procedure was carried as follows: For evaluating the sensory behaviour of 1,2-alkanediols and/or 2,3-alkanediols in combination with different liquid lipophilic components, oil components specified in the following table were blended with a 1,2-alkanediol or a 2,3-alkanediol or a mixture including a 1,2-alkanediol and a 2,3-alkanediol in a ratio as specified in Table 53 and assessed by untrained panellists in comparison to the liquid lipophilic component without addition of the 1,2-alkanediol or 2,3-alkanediol or the mixture including a 1,2-alkanediol and 2,3-alkanediol (placebo).
Test Procedure: • Hands were pre-washed with liquid soap by following a defined procedure; 30 μl of corresponding sample was applied on the backside of each hand (randomized); • After 30 s the spreading behaviour of the respective formulation on skin was evaluated versus the respective oil component without 1,2-heptanediol on a scale from 1 to 5 (1=low spreading; 5=high spreading); • The samples were distributed with the fingertips of middle and forefinger with 2×5 cycles; • After 2 minutes, the fatty/greasy skin feel was evaluated on a scale from 1 to 5 (1=low fatty/greasy skin feel; 5=high fatty/greasy skin feel); • Furthermore the applicants were asked to assess the absorption, i.e. the impression of amount of remaining residue on the skin on a scale from 1 to 5 (1=low absorption; 5=high absorption).

[2] = tested on: Pseudomonas aeruginosa (PA); assay: Preservation efficacy test (PET), European Pharmacopoeia 5.1.3; assay type: cell-based
Method: (§1) The preservation efficacy test (PET) was performed in accordance with European Pharmacopoeia § 5.1.3: The test is a reference European Pharmacopoeia method, that is to be used to evaluate the preservation system of a cosmetic or pharmaceutical preparation. The test consists of challenging the preparation under test, with prescribed inoculums of suitable microorganisms. The preservation porperties of the preparation are adequate if, in the conditions of the test, there is a significant fall or no increase, as appropriate, in the number of microorganisms in the inoculated preparations after the time prescribed.
(§2) The test microorganisms which were used, are the following:
(§3) Pseudomonas aeruginosa (PA) (bacterium); Staphylococcus aureus (SA) (bacterium); Escherichia coli (EC) (bacterium); Candida albicans (CA) (yeast); and Aspergillus brasiliensis (AB) (fungus).

[3] = tested on: Aspergillus brasiliensis (AB); assay: as above; assay type: cell-based
Method: as §1, §2, §3

Staphylococcus aureus = assay: MIC test (growth inhibition, 96 well plates, OD); assay type: cell-based; conditions: read-out: Minimum Inhibitory Concentration (MIC)
Method: (§4) The MIC test is a test on growth inhibition. Estimation of Minimum Inhibitory Concentration (MIC) is executed in 96 well plates. Through the comparison of bacterial growth with positive and negative controls via optical density (OD), different concentrations of given test substances are evaluated.
(§5) Bacteria are cultivated under adjusted conditions based on information of the German Collection of Microorganisms and Cell Cultures (DSMZ) and stored in 50% Glycerol prior to use. Afterwards, the following method was applied: Adding growth medium (according to microorganism) to each well of the microplate. Adding the test-substances in different concentrations, positive controls (water controls only with medium) and negative controls (benchmarks according to organism). Adding the microorganism in a concentration of 10^6 CFU/ml (CFU=colony forming units). Incubation of the microplates at appropriate conditions.
(§6) According to resulting growth, substance concentrations are labelled either as inhibiting or not and MIC is defined as the lowest concentration where a complete growth inhibition is visible. Experiments at concentration limits (highest concentration labelled as growth and lowest concentration labelled as inhibiting) are performed at least twice.

Corynebacterium jeikeium = assay: MIC test (growth inhibition, 96 well plates, OD); assay type: cell-based; conditions: read-out: Minimum Inhibitory Concentration (MIC)
Method: as §4, §5, §6

Candida albicans = assay: MIC test (growth inhibition, 96 well plates, OD); assay type: cell-based; conditions: read-out: Minimum Inhibitory Concentration (MIC)
Method: as §4, §5, §6

Escherichia coli = assay: MIC test (growth inhibition, 96 well plates, OD); assay type: cell-based; conditions: read-out: Minimum Inhibitory Concentration (MIC)
Method: as §4, §5, §6

Propionibacterium acnes = assay: MIC test (growth inhibition, 96 well plates, OD); assay type: cell-based; conditions: Cutibacterium acnes; read-out: Minimum Inhibitory Concentration (MIC)
Method: as §4, §5, §6

Staphylococcus hominis = assay: MIC test (growth inhibition, 96 well plates, OD); assay type: cell-based; conditions: read-out: Minimum Inhibitory Concentration (MIC)
Method: as §4, §5, §6

## CCCCCC(O)CO (stereo not shown) [1,2-heptanediol]
Aspergillus brasiliensis
  MIC: 5000 µg/mL
[1]; blend with Argan Oil vs without
  Absorption/remaining residue Delta: 1
[1]; blend with Argan Oil
  Absorption/remaining residue with alkanediol: 2.8
[1]; blend with Avocado Oil vs without
  Absorption/remaining residue Delta: 1.2
[1]; blend with Avocado Oil
  Absorption/remaining residue with alkanediol: 2.6
[1]; blend with Butyrospermum Parkii (Shea) Butter vs without
  Absorption/remaining residue Delta: 1.5
[1]; blend with Butyrospermum Parkii (Shea) Butter
  Absorption/remaining residue with alkanediol: 2.7
[1]; blend with Cacao butter vs without
  Absorption/remaining residue Delta: 0
[1]; blend with Cacao butter
  Absorption/remaining residue with alkanediol: 3.6
[1]; blend with Caprylic Capric Triglyceride (neutral oil), rows r50-r56, vs without
  Absorption/remaining residue Delta: 0.6
[1]; blend with Caprylic Capric Triglyceride (neutral oil), rows r50-r56
  Absorption/remaining residue with alkanediol: 2.7
[1]; blend with Castor Oil vs without
  Absorption/remaining residue Delta: 0.4
[1]; blend with Castor Oil
  Absorption/remaining residue with alkanediol: 4
[1]; blend with Cetearyl Nonanoate (SymMollient S), row r161, vs without
  Absorption/remaining residue Delta: 1.2
[1]; blend with Cetearyl Nonanoate (SymMollient S), row r161
  Absorption/remaining residue with alkanediol: 2
[1]; blend with Cetearyl Nonanoate, rows r199-r201, vs without
  Absorption/remaining residue Delta: 1.6
[1]; blend with Cetearyl Nonanoate, rows r199-r201
  Absorption/remaining residue with alkanediol: 3.2
[1]; blend with Chlorella oil (biotech) vs without
  Absorption/remaining residue Delta: 0.2
[1]; blend with Chlorella oil (biotech)
  Absorption/remaining residue with alkanediol: 3
[1]; blend with Coconut Oil vs without
  Absorption/remaining residue Delta: 1.4
[1]; blend with Coconut Oil
  Absorption/remaining residue with alkanediol: 2
[1]; blend with Ethylhexyl Methoxycinnamate (Neo Heliopan AV) vs without
  Absorption/remaining residue Delta: 0.5
[1]; blend with Ethylhexyl Methoxycinnamate (Neo Heliopan AV)
  Absorption/remaining residue with alkanediol: 3
[1]; blend with Ethylhexyl Salicylate (Neo Heliopan OS) vs without
  Absorption/remaining residue Delta: 1.3
[1]; blend with Ethylhexyl Salicylate (Neo Heliopan OS)
  Absorption/remaining residue with alkanediol: 2.2
[1]; blend with Grapeseed Oil vs without
  Absorption/remaining residue Delta: 0.2
[1]; blend with Grapeseed Oil
  Absorption/remaining residue with alkanediol: 2.8
[1]; blend with Helianthus Annuus (Sunflower) Seed Oil vs without
  Absorption/remaining residue Delta: 1.3
[1]; blend with Helianthus Annuus (Sunflower) Seed Oil
  Absorption/remaining residue with alkanediol: 2
[1]; blend with Hexyldecanol (Eutanol G) vs without
  Absorption/remaining residue Delta: 0.2
[1]; blend with Hexyldecanol (Eutanol G)
  Absorption/remaining residue with alkanediol: 2.7
[1]; blend with Homosalate (Neo Heliopan HMS) vs without
  Absorption/remaining residue Delta: 0.3
[1]; blend with Homosalate (Neo Heliopan HMS)
  Absorption/remaining residue with alkanediol: 2.5
[1]; blend with Isoamyl p-Methoxycinnamate (Neo Heliopan E 1000) vs without
  Absorption/remaining residue Delta: 1.7
[1]; blend with Isoamyl p-Methoxycinnamate (Neo Heliopan E 1000)
  Absorption/remaining residue with alkanediol: 2.5
[1]; blend with Microalgae oil vs without
  Absorption/remaining residue Delta: 1.2
[1]; blend with Microalgae oil
  Absorption/remaining residue with alkanediol: 2.5
[1]; blend with Octocrylene (Neo Heliopan 303), row r184 (UV filter), vs without
  Absorption/remaining residue Delta: 1.3
[1]; blend with Octocrylene (Neo Heliopan 303), row r184 (UV filter)
  Absorption/remaining residue with alkanediol: 2.7
[1]; blend with Octocrylene (Neo Heliopan 303), vs without
  Absorption/remaining residue Delta: 0.5
[1]; blend with Octocrylene (Neo Heliopan 303)
  Absorption/remaining residue with alkanediol: 3.5
[1]; blend with Olive Oil vs without
  Absorption/remaining residue Delta: 1.6
[1]; blend with Olive Oil
  Absorption/remaining residue with alkanediol: 2.4
[1]; blend with Propanediol Dicaprylate/Dicaprate (Symollient PDCC) vs without
  Absorption/remaining residue Delta: 0.1
[1]; blend with Propanediol Dicaprylate/Dicaprate (Symollient PDCC)
  Absorption/remaining residue with alkanediol: 2.4
[1]; blend with Prunus Amygdalus Dulcis (Sweet Almond) Oil vs without
  Absorption/remaining residue Delta: 1.5
[1]; blend with Prunus Amygdalus Dulcis (Sweet Almond) Oil
  Absorption/remaining residue with alkanediol: 2.2
[1]; blend with Simmondsia Chinensis (Jojoba) Seed Oil vs without
  Absorption/remaining residue Delta: 1.2
[1]; blend with Simmondsia Chinensis (Jojoba) Seed Oil
  Absorption/remaining residue with alkanediol: 2.5
[2]; 0.1% in shampoo
  number of microorganisms after 2 days: 2,500
  number of microorganisms after 7 days: 10
  number of microorganisms after 14 days: 1
  number of microorganisms after 28 days: 1
[2]; 0.2% in o/w emulsion
  number of microorganisms after 2 days: 1
  number of microorganisms after 7 days: 1
  number of microorganisms after 14 days: 1
  number of microorganisms after 28 days: 1
[2]; 0.4% in o/w emulsion
  number of microorganisms after 2 days: 1
  number of microorganisms after 7 days: 1
  number of microorganisms after 14 days: 1
  number of microorganisms after 28 days: 1
[3]; 0.1% in shampoo
  number of microorganisms after 2 days: 240,000
  number of microorganisms after 7 days: 220,000
  number of microorganisms after 14 days: 150,000
  number of microorganisms after 28 days: 19,000
[3]; 0.2% in o/w emulsion
  number of microorganisms after 2 days: 2,200,000
  number of microorganisms after 7 days: 2,000,000
  number of microorganisms after 14 days: 2,500,000
  number of microorganisms after 28 days: 2,100,000
[3]; 0.4% in o/w emulsion
  number of microorganisms after 2 days: 1,000,000
  number of microorganisms after 7 days: 180,000
  number of microorganisms after 14 days: 150,000
  number of microorganisms after 28 days: 1
Staphylococcus aureus
  MIC: 10000 µg/mL (≈ 75.6 mM)
Corynebacterium jeikeium
  MIC: 7500 µg/mL (≈ 56.7 mM)
Candida albicans
  MIC: 5000 µg/mL (≈ 37.8 mM)
Escherichia coli
  MIC: 5000 µg/mL (≈ 37.8 mM)
Propionibacterium acnes
  MIC: > 5000 µg/mL
Staphylococcus hominis
  MIC: 10000 µg/mL (≈ 75.6 mM)
